Test results: US7700602B2, “Amino-5,5-diphenylimidazolone derivatives for the inhibition of β-secretase” (Wyeth LLC, priority 2004, dated 2010)
Read-outs that look alike come from different tables or passages of the source.

What was measured:
[1] = molecular target: T1, human BACE2 (Homo sapiens, UniProt Q9Y5Z0); assay: Fluorescent Kinetic Assay for Human Recombinant BACE 2 (selectivity BACE1/BACE2); format: biochemical; details: selectivity BACE1 over BACE2; 1.5 nM human BACE2, 25 μM substrate, pH 4.5;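 further: cleavage rate from the linear slope of fluorescence (excitation 320 nm, emission 420 nm) recorded every 40 s over 30 min at room temperature, sodium acetate buffer with 0.05% CHAPS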
T1 sequence (Q9Y5Z0 63-518): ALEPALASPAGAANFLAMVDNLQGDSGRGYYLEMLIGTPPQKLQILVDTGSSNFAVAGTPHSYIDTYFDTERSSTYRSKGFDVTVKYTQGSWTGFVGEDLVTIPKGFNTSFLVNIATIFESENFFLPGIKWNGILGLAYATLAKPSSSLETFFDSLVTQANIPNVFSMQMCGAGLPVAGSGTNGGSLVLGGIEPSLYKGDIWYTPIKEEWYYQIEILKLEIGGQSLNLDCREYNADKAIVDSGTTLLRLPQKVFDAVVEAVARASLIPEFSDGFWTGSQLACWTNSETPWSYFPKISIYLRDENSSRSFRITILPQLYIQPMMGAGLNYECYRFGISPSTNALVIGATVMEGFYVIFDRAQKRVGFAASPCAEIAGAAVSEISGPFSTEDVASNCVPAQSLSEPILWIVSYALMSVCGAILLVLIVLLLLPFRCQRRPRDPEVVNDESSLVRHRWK

[2] = molecular target: human BACE1 (Homo sapiens, UniProt P56817); assay: Fluorescent kinetic assay, inhibition of BACE1 (WABC-6 peptide substrate); format: biochemical;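 further: fluorescence monitored at 320 nm excitation and 420 nm emission every 40 s over 30 min, with the substrate cleavage rate taken from the linear slope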
human BACE1, sequence (P56817 46-501): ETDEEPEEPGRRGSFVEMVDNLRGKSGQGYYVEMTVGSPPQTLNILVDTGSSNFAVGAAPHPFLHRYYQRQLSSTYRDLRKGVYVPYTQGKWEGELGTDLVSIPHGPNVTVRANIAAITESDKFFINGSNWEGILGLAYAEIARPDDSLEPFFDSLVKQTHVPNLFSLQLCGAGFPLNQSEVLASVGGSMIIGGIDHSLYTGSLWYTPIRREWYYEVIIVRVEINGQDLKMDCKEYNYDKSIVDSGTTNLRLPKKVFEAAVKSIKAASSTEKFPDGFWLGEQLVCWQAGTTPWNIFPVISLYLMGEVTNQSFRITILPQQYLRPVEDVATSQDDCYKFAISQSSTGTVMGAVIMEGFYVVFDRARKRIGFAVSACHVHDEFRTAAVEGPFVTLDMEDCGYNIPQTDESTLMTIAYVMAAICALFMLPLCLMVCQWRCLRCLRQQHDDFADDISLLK

[3] = 10 nM enzyme, 25 μM substrate WABC-6, pH 4.5, room temperature, read-out: IC50 (μM) BACE1

BACE1/BACE2 selectivity [1] | IC50 [2, 3] [µM] | IC50 [2] [µM] | SMILES
II (II = 10-100-fold selectivity) | 0.01 to 0.1 |  | COc1ccc([C@]2(c3ccc(F)c(-c4cncc(F)c4)c3)N=C(N)N(C)C2=O)cc1 [Example 142B, (5R)-2-Amino-5-[4-fluoro-3-(5-fluoropyridin-3-yl)phenyl]-5-(4-methoxyphenyl)-3-methyl-3,5-dihydro-4H-imidazol-4-one]
I (I = >100-fold selectivity) | 0.11 to 1 |  | CN1C(=O)C(c2ccc(OC(F)(F)F)cc2)(c2cc(-c3cccnc3)ccc2F)N=C1N (stereo not shown) [Example 84]
II (II = 10-100-fold selectivity) | 0.01 to 0.1 |  | CN1C(=O)C(c2ccc(OCCF)cc2)(c2cccc(-c3cncc(F)c3)c2)N=C1N (stereo not shown) [Example 110]
III (III = <10-fold selectivity) | > 1 |  | COc1ccc([C@@]2(c3ccc(F)c(-c4cncnc4)c3)N=C(N)N(C)C2=O)cc1C(F)(F)F [Example 107B, (5R)-2-Amino-5-(4-fluoro-3-pyrimidin-5-ylphenyl)-5-[4-methoxy-3-(trifluoromethyl)phenyl]-3-methyl-3,5-dihydro-4H-imidazol-4-one]
II (II = 10-100-fold selectivity) | 0.01 to 0.1 |  | CN1C(=O)C(c2ccc(OC(F)(F)F)c(F)c2)(c2ccc(F)c(-c3cnccc3F)c2)N=C1N (stereo not shown) [Example 78]
III (III = <10-fold selectivity) | 0.11 to 1 |  | CCOc1ccc(C2(c3cccc(-c4cccnc4OC)c3)N=C(N)N(C)C2=O)cc1OCC (stereo not shown) [Example 68]
II (II = 10-100-fold selectivity) | 0.01 to 0.1 |  | CN1C(=O)[C@@](c2ccc(OC(F)F)cc2)(c2cccc(-c3ccc(F)nc3)c2)N=C1N [Example 135B, (5R)-2-Amino-5-[4-(difluoromethoxy)phenyl]-5-[3-(6-fluoropyridin-3-yl)phenyl]-3-methyl-3,5-dihydro-4H-imidazol-4-one]
II (II = 10-100-fold selectivity) | 0.01 to 0.1 |  | CCOc1ccc([C@]2(c3ccc(F)c(-c4cccnc4F)c3)N=C(N)N(C)C2=O)cc1OCC [Example 136A, (5S)-2-Amino-5-(3,4-diethoxyphenyl)-5-[4-fluoro-3-(2-fluoropyridin-3-yl)phenyl]-3-methyl-3,5-dihydro-4H-imidazol-4-one]
II (II = 10-100-fold selectivity) | 0.01 to 0.1 |  | COc1ccc(C2(c3cccc(-c4cccnc4F)c3)N=C(N)N(C)C2=O)cc1C (stereo not shown) [Example 59]
II (II = 10-100-fold selectivity) | 0.11 to 1 |  | COc1ncccc1-c1cc(C2(c3ccc(OC(F)(F)F)cc3)N=C(N)N(C)C2=O)ccc1F (stereo not shown) [Example 72]
III (III = <10-fold selectivity) |  | 0.11 to 1 | COc1ccc(C2(c3cccc(-c4cccnc4)c3)N=C(N)N(C)C2=O)cc1C#N (stereo not shown) [Example 20]
I (I = >100-fold selectivity) | 0.11 to 1 |  | CN1CC(c2ccc(OC(F)(F)F)cc2)(c2ccc(F)c(-c3cccnc3F)c2)N=C1N (stereo not shown) [Example 144, 4-[4-Fluoro-3-(2-fluoropyridin-3-yl)phenyl]-1-methyl-4-(4-trifluoromethoxyphenyl)-4,5-dihydro-1H-imidazol-2-ylamine]
I (I = >100-fold selectivity) | 0.01 to 0.1 |  | COc1ccc([C@]2(c3ccc(F)c(-c4cncnc4)c3)N=C(N)N(C)C2=O)cc1C(F)(F)F [Example 107A, (5S)-2-Amino-5-(4-fluoro-3-pyrimidin-5-ylphenyl)-5-[4-methoxy-3-(trifluoromethyl)phenyl]-3-methyl-3,5-dihydro-4H-imidazol-4-one]
II (II = 10-100-fold selectivity) | 0.11 to 1 |  | Cc1cc(C2(c3cccc(-c4cncnc4)c3)N=C(N)N(C)C2=O)ccc1OCCC1CCCCC1 (stereo not shown) [Example 123]
II (II = 10-100-fold selectivity) | 0.11 to 1 |  | CCN1C(=O)C(c2ccc(OC(F)F)cc2)(c2ccc(F)c(-c3cncc(F)c3)c2)N=C1N (stereo not shown) [Example 128]
II (II = 10-100-fold selectivity) |  | 0.01 to 0.1 | CCOc1cc(C2(c3cccc(-c4cccnc4)c3)N=C(N)N(C)C2=O)ccc1OC (stereo not shown) [Example 24]
III (III = <10-fold selectivity) | > 1 |  | CCOc1ccc([C@@]2(c3cccc(-c4cccnc4F)c3)N=C(N)N(C)C2=O)cc1OCC [Example 103A, (5R)-2-Amino-5-(3,4-diethoxyphenyl)-5-[3-(2-fluoropyridin-3-yl)phenyl]-3-methyl-3,5-dihydro-4H-imidazol-4-one]
I (I = >100-fold selectivity) | 0.01 to 0.1 |  | CN1C(=O)[C@](c2ccc(OCCF)cc2)(c2ccc(F)c(-c3cncnc3)c2)N=C1N [Example 139A, (5S)-2-Amino-5-[4-(2-fluoroethoxy)phenyl]-5-(4-fluoro-3-pyrimidin-5-ylphenyl)-3-methyl-3,5-dihydro-4H-imidazol-4-one]

BACE1/BACE2 selectivity [1] | IC50 [2, 3] [µM] | IC50 [2] [µM] | SMILES
III (III = <10-fold selectivity) | 0.11 to 1 |  | CN1C(=O)C(c2ccc(OC(F)(F)F)cc2)(c2ccc(F)c(-c3cnn(C)c3)c2)N=C1N (stereo not shown) [Example 100, 2-Amino-5-[4-fluoro-3-(1-methyl-1H-pyrazol-4-yl)phenyl]3-methyl-5-[4-(trifluoromethoxy)phenyl]-3,5-dihydro-4H-imidazol-4-one]
II (II = 10-100-fold selectivity) | 0.01 to 0.1 |  | CN1C(=O)C(c2ccc(OC(F)F)cc2)(c2ccc(F)c(-c3ccc(F)nc3)c2)N=C1N (stereo not shown) [Example 88]
III (III = <10-fold selectivity) | 0.01 to 0.1 |  | CN1C(=O)C(c2ccc(OC(F)(F)F)cc2)(c2cccc(-c3ncccn3)c2)N=C1N (stereo not shown) [Example 37, 2-Amino-3-methyl-5-(3-pyrimidin-2-ylphenyl)-5-[4-(trifluoromethoxy)phenyl]-3,5-dihydro-4H-imidazol-4-one]
III (III = <10-fold selectivity) | 0.01 to 0.1 |  | COc1cncc(-c2cc(C3(c4ccc(OC(F)(F)F)cc4)N=C(N)N(C)C3=O)ccc2F)c1 (stereo not shown) [Example 71]
II (II = 10-100-fold selectivity) | 0.01 to 0.1 |  | CN1C(=O)C(c2ccc(OC(F)F)cc2)(c2cccc(-c3ccc(F)nc3)c2)N=C1N (stereo not shown) [Example 90]
III (III = <10-fold selectivity) | 0.01 to 0.1 |  | CCOc1ccc(C2(c3cccc(-c4cncc(OC)c4)c3)N=C(N)N(C)C2=O)cc1OCC (stereo not shown) [Example 67]
II (II = 10-100-fold selectivity) | 0.01 to 0.1 |  | Cc1cc(C2(c3cccc(-c4cccnc4)c3)N=C(N)N(C)C2=O)ccc1O (stereo not shown) [Example 10]
II (II = 10-100-fold selectivity) | 0.11 to 1 |  | CN1C(=O)C(c2ccc(OC(F)(F)F)cc2)(c2ccc(F)c(-c3ccc(F)nc3)c2)N=C1N (stereo not shown) [Example 73]
II (II = 10-100-fold selectivity) | 0.11 to 1 |  | CN1C(=O)C(c2ccc(OC(F)(F)F)cc2)(c2cccc(-c3ccc(F)nc3)c2)N=C1N (stereo not shown) [Example 65]
II (II = 10-100-fold selectivity) |  | 0.01 to 0.1 | COc1ccc(C2(c3cccc(-c4cccnc4)c3)N=C(N)N(C)C2=O)cc1OC(C)C (stereo not shown) [Example 18]
III (III = <10-fold selectivity) | > 1 |  | CN1C(=O)[C@](c2ccc(OC(F)F)cc2)(c2cccc(-c3cc(F)cnc3F)c2)N=C1N [Example 137A, (5S)-2-Amino-5-[4-(difluoromethoxy)phenyl]-5-[3-(2,5-difluoropyridin-3-yl)phenyl]-3-methyl-3,5-dihydro-4H-imidazol-4-one]
II (II = 10-100-fold selectivity) | 0.01 to 0.1 |  | CN1C(=O)C(c2ccc(OC(F)F)cc2)(c2ccc(F)c(-c3cc(F)cnc3F)c2)N=C1N (stereo not shown) [Example 92]
III (III = <10-fold selectivity) | 0.11 to 1 |  | CN1C(=O)[C@](c2ccc(OC(F)F)cc2)(c2ccc(F)c(-c3cccnc3F)c2)N=C1N [Example 133A, (5S)-2-Amino-5-[4-(difluoromethoxy)phenyl]-5-[4-fluoro-3-(2-fluoropyridin-3-yl)phenyl]-3-methyl-3,5-dihydro-4H-imidazol-4-one]
I (I = >100-fold selectivity) | 0.11 to 1 |  | NC1=NC(c2ccc(OC(F)(F)F)cc2)(c2ccc(F)c(-c3cncnc3)c2)C(=O)N1CCF (stereo not shown) [Example 126]
II (II = 10-100-fold selectivity) | 0.11 to 1 |  | CN1C(=O)C(c2ccc(OC(F)(F)F)c(F)c2)(c2ccc(F)c(-c3cncc(F)c3)c2)N=C1N (stereo not shown) [Example 41, 2-Amino-5-[4-fluoro-3-(5-fluoropyridin-3-yl)phenyl]-5-[3-fluoro-4-(trifluoromethoxy)phenyl]-3-methyl-3,5-dihydro-imidazol-4-one]
III (III = <10-fold selectivity) | > 1 |  | COc1ccc([C@@]2(c3ccc(F)c(-c4cncc(F)c4)c3)N=C(N)N(C)C2=O)cc1 [Example 142A, (5S)-2-Amino-5-[4-fluoro-3-(5-fluoropyridin-3-yl)phenyl]-5-(4-methoxyphenyl)-3-methyl-3,5-dihydro-4H-imidazol-4-one]
II (II = 10-100-fold selectivity) | 0.01 to 0.1 |  | COc1ccc(C2(c3ccc(F)c(-c4cncc(F)c4)c3)N=C(N)N(C)C2=O)cc1C (stereo not shown) [Example 61]
